Literature values, collected in patent US7815928B2, “Device for local administration of solid or semi-solid formulations and delayed-release formulations for proposal parenteral administration and preparation process” (Societe de Conseils de Recherches et d'Applications …, priority 1996, dated 2010).

Tested on: smooth muscle cells
Details: after endothelial damage

Q: For heparin, which “proliferation of smooth muscle cells” value is on record?
A: inhibits the proliferation
